Consider 47 compounds from the Deep4Chem optical property database.

The structures appear in SMILES notation.

The nature of the series: solvent given as SMILES.

For `CCCCCCc1ccc(-n2c3[n+](c4c5ccccc5c5ccccc5c42)[B-](C)(C)c2cc(N(c4ccccc4)c4ccccc4)ccc2-3)cc1`, the absorption maximum stood at 393 nm (in C1CCOC1), 390 nm (in CC#N), 397 nm (in Cc1ccccc1) and 392 nm (in ClCCl).

`COC(=O)/C=C/c1sc(-c2ccc(N(C)C)cc2)c(-c2cccnc2)c1N` gave an absorption maximum (in CC#N) of 415 nm.

As for `CN(C)c1ccc(/C=C/C=C/c2ccncc2)cc1`, the absorption maximum by setting is: (in C1COCCO1) 392 nm; (in CC#N) 392 nm; (in CCCCCCC) 383 nm; (in CO) 394 nm.

Where the note is “in ClCCl”, `C(#Cc1cccs1)c1ncc(-c2ccccc2)o1` showed an absorption maximum of 325 nm.

Under “in CO”, `c1ccc(C2CSC(c3c4ccc(=[N+]5CCCCC5)cc-4oc4cc(N5CCCCC5)ccc34)SC2)cc1` (stereo not given) gave an absorption maximum of 584.58 nm.

For the compound `S=P1(c2ccccc2)c2cccc3ccc4ccc1n4c23` (stereo not given), the absorption maximum (in ClCCl) amounted to 407 nm.

On to `COc1ccc(-c2nc(-c3cccc(OC)c3)[nH]c2-c2ccc(OC)cc2)cc1`, for which the absorption maximum (in CO) stood at 300 nm.

Consider `N#Cc1c(-c2ccccc2)cc(-c2ccccc2)[nH]c1=S`, for which the absorption maximum came out at 446 nm (in C1COCCO1); 434 nm (in CC#N); 441 nm (in CCCCO); 431 nm (in CCCO); 407 nm (in CCO); 430 nm (in CCOC(C)=O). The absorption maximum is listed as 451 nm (in CCOCC) and 439 nm (in CN(C)C=O).

As for `CB1C=Cc2ccc3ccccc3c2N1`, the absorption maximum (in C1CCCCC1) is 352 nm.

`CCN(CC)c1ccc2cc(-c3cn4cc(C)ccc4n3)c(=O)oc2c1` registered an absorption maximum (in ClC(Cl)Cl) of 424 nm.

`CC(C)(C)NC(=O)c1cccc2ccc3c4cc(F)ccc4c4ccc(F)cc4c3c12` came in with an absorption maximum (in ClCCl) of 334 nm.

For the compound `Cn1c(=O)c(/N=N/c2ccc(Nc3ccccc3)c(S(=O)(=O)O)c2)c(O)c2ccccc21`, the absorption maximum worked out at 412 nm (in C1CCOC1); 407 nm (in CC(C)=O); 411 nm (in CCOC(C)=O); 400 nm (in CO); 396 nm (in CS(C)=O); 414 nm (in Cc1ccccc1). For the same compound, the absorption maximum was 415 nm (in ClCCl) and 385 nm (in O).

In the case of `CCCCN1C(=O)C(=C/C=C/C=C/C=C2N(CCCC)c3ccccc3N2CCCC)C(=O)N(CCCC)C1=S`, the absorption maximum was 540 nm (in CC#N); 678 nm (in CCCCCC); 492 nm (in CCO); 549 nm (in CN(C)C=O); 483 nm (in CO); 689 nm (in Cc1ccccc1). The absorption maximum is, setting by setting: (in ClC(Cl)Cl) 658 nm; (in ClCCl) 642 nm; (in OCC(F)(F)F) 464 nm.

As for `CCC1=C(C)C(=O)n2c1cc1c(C)c(CC(=O)OC)c(C)n1c2=O`, the absorption maximum reads like this: (in CC#N) 413 nm; (in CC(C)=O) 413 nm; (in CO) 420 nm; (in CS(C)=O) 421 nm; (in ClC(Cl)Cl) 423 nm; (in c1ccccc1) 416 nm.

For `CN(C)c1ccc(C#Cc2ccc3c(N(C)C)cc(-c4ccccc4)cc3c2)cc1`, the absorption maximum is, setting by setting: (in CC#N) 342.13 nm; (in CCO) 335.73 nm; (in ClCCl) 341 nm.

With `CCCCCCn1c2cc(/C=C/c3ccccc3)ccc2c2ccc(/C=C/c3ccccc3)cc21`, under “in ClC(Cl)Cl”, the absorption maximum was found to be 390.62 nm.

On to `CCCN1c2ccccc2Sc2cc(/C=C\c3cc(=O)oc4ccc(C)cc34)ccc21`, for which the absorption maximum (in ClC(Cl)Cl) worked out at 423 nm.

Take `COc1ccc(/C=C/C2=CC(/C=C/c3ccc(OC)cc3)=[N+]3C2=C(c2ccc(-c4ccc5ccccc5n4)s2)c2c(/C=C/c4ccc(OC)cc4)cc(/C=C/c4ccc(OC)cc4)n2[B-]3(F)F)cc1`: where the note is “in C1COCCO1”, the absorption maximum worked out at 708 nm.

As to `F[B-]1(F)n2c(Cl)ccc2C(c2c(Cl)cccc2Cl)=C2C=CC(NCc3ccccc3)=[N+]21`, the absorption maximum stood at 479 nm (in CC#N); 523 nm (in CCCCCC); 497 nm (in CCOC(C)=O); 488 nm (in CO); 505 nm (in ClCCl).

For the setting “in ClCCl”, `CCn1c2c(-c3cccs3)cc(C(C)(C)C)cc2c2cc(C(C)(C)C)cc(-c3cccs3)c21` registered an absorption maximum of 360 nm.

In the case of `CCCCc1ccc2ccc3c(CCCC)cc(CCCC)c4ccc1c2c34`, the absorption maximum stood at 352 nm (in CCCCCC), 351 nm (in CO) and 354 nm (in ClCCl).

With `c1ccc2cc3c(cc2c1)-c1cccc2cc4ccccc4c-3c12`, the absorption maximum (in CCCCCCC) was determined as 469 nm.

On to `CCCCNC(=O)c1nc2c(N(C)C)nc(N(C)C)nc2n1Cc1ccccc1`, for which the absorption maximum (in C1COCCO1) was determined as 332 nm, the absorption maximum (in CC#N) is 333 nm, the absorption maximum (in CO) turned out to be 335 nm and the absorption maximum (in ClCCl) came out at 338 nm.

`CN(C)c1ccc(/C=C/c2ncccn2)cc1`: the absorption maximum (in ClCCl) is 379 nm.

As to `Cc1cc(-n2c3ccccc3c3cc4c(cc32)C2c3ccccc3C4c3ccccc32)ccc1-c1nc(-c2ccccc2)nc(-c2ccccc2)n1`, the absorption maximum (in Cc1ccccc1) stood at 367 nm.

For the compound `Clc1ccccc1-c1nc2sc3ccccc3c2s1`, for the setting “in CS(C)=O”, the absorption maximum turned out to be 347 nm.

The compound `CCCCCCCCCCCCOc1cc2c(cc1OCCCCCCCCCCCC)C1=C3C(=O)N4C=Cc5cc(OCCCCCCCCCCCC)c(OCCCCCCCCCCCC)cc5C4=C3C(=O)N1C=C2` gave an absorption maximum (in CN(C)C=O) of 592 nm and an absorption maximum (in ClC(Cl)Cl) of 590 nm.

Turning to `CC(C)(C)NS(=O)(=O)c1ccc2c(c1)C(=O)/C(=C1\Sc3ccc(S(=O)(=O)NC(C)(C)C)cc3C1=O)S2`, the absorption maximum was 538 nm (in C1COCCO1), 543 nm (in CN(C)C=O) and 546 nm (in CS(C)=O).

In the case of `COC(=O)c1ccc2c3ccc(C(=O)OC)c4c(C(=O)OC)ccc(c5ccc(C(=O)OC)c1c25)c43`, the absorption maximum by setting is: (in C1COCCO1) 470 nm; (in CC#N) 465 nm; (in CC(C)=O) 465 nm; (in CC(C)O) 476 nm; (in CCCCO) 476 nm; (in CN(C)C=O) 468 nm. The absorption maximum is listed as 465 nm (in CO) and 469 nm (in ClC(Cl)Cl).

Consider `CCCCN(CCCC)c1ccc(/C=C/c2ccc3nc(-c4ccccc4)c(/C=C/c4ccc(N(C)C)cc4)nc3c2)cc1`, for which the absorption maximum reads like this: (in C1COCCO1) 458 nm; (in CC#N) 462 nm; (in ClCCl) 468 nm.

`COc1ccc(C2=C(C)C3=C(c4c(-c5ccccn5)nc5ccccn45)c4c(C)cc(C)n4[B-](F)(F)[N+]3=C2C)cc1` came in with an absorption maximum (in ClCCl) of 535 nm.

`COc1ccc(C2=C3C=c4c(oc5ccccc45)=[N+]3[B-](F)(F)n3c2cc2c4ccccc4oc23)cc1`: the absorption maximum is on record as 583.5 nm (in C1CCCCC1), 578 nm (in CCOC(C)=O) and 576.5 nm (in CO).

`S=C1CCCCC1` had an absorption maximum (in CCO) of 495 nm.

For the compound `CC(=O)Nc1ccc(C2=N/C(=C\c3ccc(C#N)cc3)C(=O)O2)cc1`, the absorption maximum (in C1COCCO1) came to 389 nm.

As to `COc1ccc(-n2c3ccccc3c3c(C)cc4ccccc4c32)cc1`, the absorption maximum (in ClCCl) amounted to 303 nm.

Compound `COc1cc(-c2ncc(-c3ccncc3)o2)cc(OC)c1OC` gave an absorption maximum (in ClCCl) of 326 nm.

`CC1=C(c2ccc(N(C)C)cc2)C(C)=[N+]2C1=C(c1c(-c3ccccn3)nc3ccccn13)c1c(C)c(-c3ccc(N(C)C)cc3)c(C)n1[B-]2(F)F` returned an absorption maximum (in ClCCl) of 574 nm.

For `c1cnc(-c2c3ccccc3c(-c3cncnc3)c3ccccc23)nc1`, the absorption maximum reads like this: (in CCO) 391 nm; (in ClCCl) 394 nm.

With `c1ccc2c(c1)c1ccccc1n2-c1ccc(-c2cc3ccc(-c4ccc5cc(-c6ccc(-n7c8ccccc8c8ccccc87)cc6)oc5c4)cc3o2)cc1`, the absorption maximum worked out at 365 nm (in Cc1ccccc1) and 376 nm (in c1ccc2c(c1)c1ccccc1n2-c1ccc(-c2ccc(-n3c4ccccc4c4ccccc43)cc2)cc1).

Regarding `CCOC(=O)CSc1nc(-c2ccc(OC)cc2)c(C)c(C#N)c1C#N`, the absorption maximum (in c1ccccc1) is reported as 374 nm.

`C(=C\c1c2ccccc2cc2ccccc12)/c1ccc2ccccc2n1`: the absorption maximum came out at 390 nm (in CC1CCCCC1) and 390 nm (in CC#N).

Turning to `Cc1cc(C)c(C2=C3C=C(/C=C/C(=O)OCc4ccccc4)C=[N+]3[B-](F)(F)n3cccc32)c(C)c1`, the absorption maximum (in ClCCl) was 537 nm.

Under “in CO”, `BrC1=CN2C[n+]3cc(Br)ccc3N=C2C=C1` had an absorption maximum of 434 nm.

For the compound `Brc1ccc(-c2nc(-c3ccc(C#Cc4ccc(-n5c6ccccc6c6ccccc65)cc4)cc3)nc(-c3ccc(C#Cc4ccc(-n5c6ccccc6c6ccccc65)cc4)cc3)n2)cc1`, the absorption maximum (in ClCCl) is 357 nm.

For `COc1cc2c3cc(OC)c(OC)cc3c3cc4c(C)cc(=O)oc4cc3c2cc1OC`, the absorption maximum reads like this: (in C1CCOC1) 366 nm; (in CO) 364 nm; (in CS(C)=O) 370 nm; (in Cc1ccccc1) 366 nm; (in ClC(Cl)Cl) 368 nm.

The compound `CCOC(=O)c1c(-c2c(Cl)c3ccccc3oc2=O)nn(-c2ccccc2)c1C(=O)OCC` returned an absorption maximum (in ClCCl) of 322 nm.

`N#Cc1cc2nc3c(nc2cc1C#N)C1c2ccc(N(c4ccccc4)c4ccccc4)cc2C3c2ccc(N(c3ccccc3)c3ccccc3)cc21` came in with an absorption maximum (in C1CCCCC1) of 428 nm, an absorption maximum (in CC#N) of 410 nm, an absorption maximum (in Cc1ccccc1) of 420 nm and an absorption maximum (in ClCCl) of 428 nm.
